Measured values taken from ChEMBL document CHEMBL1133477, “Discovery of novel p-arylthio cinnamides as antagonists of leukocyte function-associated antigen-1/intracellular adhesion molecule-1 interaction. 1. Identification of an additional binding pocket based on an anilino diaryl sulfide lead” (J Med Chem, 2000).

These compounds were tested against T1, Intercellular adhesion molecule (ICAM-1), Integrin alpha-L/beta-2 (Homo sapiens, UniProt P05107+P20701) (assay: Ability to block the interaction between integrin LFA-1 and its adhesion partner ICAM-1 in a time-resolved fluorescent LFA-1/ICAM-1 biochemical interaction assay).
Type: protein-complex assay

T1 sequence (P20701 whole entry): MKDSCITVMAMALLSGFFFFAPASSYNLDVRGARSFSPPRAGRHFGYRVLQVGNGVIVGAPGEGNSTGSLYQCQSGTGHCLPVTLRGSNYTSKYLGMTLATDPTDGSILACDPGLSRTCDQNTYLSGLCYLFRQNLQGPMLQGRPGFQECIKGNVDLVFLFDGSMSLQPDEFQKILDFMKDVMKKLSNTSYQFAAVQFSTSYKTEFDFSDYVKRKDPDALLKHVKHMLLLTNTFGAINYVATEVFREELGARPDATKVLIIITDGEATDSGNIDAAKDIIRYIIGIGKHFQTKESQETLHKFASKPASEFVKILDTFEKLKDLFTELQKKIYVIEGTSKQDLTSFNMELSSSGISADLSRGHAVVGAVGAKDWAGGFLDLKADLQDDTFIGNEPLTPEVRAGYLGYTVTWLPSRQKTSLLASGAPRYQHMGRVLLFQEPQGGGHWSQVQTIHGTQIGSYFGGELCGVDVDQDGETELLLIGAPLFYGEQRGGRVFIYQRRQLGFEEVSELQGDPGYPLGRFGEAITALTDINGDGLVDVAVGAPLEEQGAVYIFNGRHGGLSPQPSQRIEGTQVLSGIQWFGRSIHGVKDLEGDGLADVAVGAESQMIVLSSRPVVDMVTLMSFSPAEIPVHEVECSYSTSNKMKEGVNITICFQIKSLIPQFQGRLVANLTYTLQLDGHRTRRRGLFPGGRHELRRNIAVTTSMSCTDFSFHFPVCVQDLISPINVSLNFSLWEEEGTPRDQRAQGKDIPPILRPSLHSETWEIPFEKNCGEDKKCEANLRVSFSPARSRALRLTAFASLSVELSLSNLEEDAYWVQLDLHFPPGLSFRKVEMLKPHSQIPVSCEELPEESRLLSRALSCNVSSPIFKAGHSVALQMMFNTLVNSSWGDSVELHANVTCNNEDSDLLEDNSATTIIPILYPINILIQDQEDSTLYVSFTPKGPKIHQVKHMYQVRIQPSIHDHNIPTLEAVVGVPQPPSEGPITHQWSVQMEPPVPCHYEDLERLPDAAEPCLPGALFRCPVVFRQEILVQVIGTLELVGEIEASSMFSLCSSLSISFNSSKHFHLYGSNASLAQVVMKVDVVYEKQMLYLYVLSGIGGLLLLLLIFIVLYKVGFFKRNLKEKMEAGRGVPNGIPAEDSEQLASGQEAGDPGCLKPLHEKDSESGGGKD
T1 sequence (P05362 whole entry, further chain): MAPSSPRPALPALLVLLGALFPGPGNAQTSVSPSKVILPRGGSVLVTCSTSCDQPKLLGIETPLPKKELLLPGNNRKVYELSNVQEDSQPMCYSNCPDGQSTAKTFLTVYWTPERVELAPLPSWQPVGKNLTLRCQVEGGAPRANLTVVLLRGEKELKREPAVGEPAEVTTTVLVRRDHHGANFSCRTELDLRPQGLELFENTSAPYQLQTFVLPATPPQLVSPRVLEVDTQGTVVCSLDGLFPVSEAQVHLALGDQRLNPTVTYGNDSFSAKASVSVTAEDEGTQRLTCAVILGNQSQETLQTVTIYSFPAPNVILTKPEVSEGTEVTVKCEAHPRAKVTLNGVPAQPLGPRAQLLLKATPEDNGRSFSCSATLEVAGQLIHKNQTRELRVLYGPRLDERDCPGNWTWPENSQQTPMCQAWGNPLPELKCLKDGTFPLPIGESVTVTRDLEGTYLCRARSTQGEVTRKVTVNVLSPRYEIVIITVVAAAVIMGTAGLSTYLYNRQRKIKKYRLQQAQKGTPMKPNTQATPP
T1 sequence (P05107 whole entry): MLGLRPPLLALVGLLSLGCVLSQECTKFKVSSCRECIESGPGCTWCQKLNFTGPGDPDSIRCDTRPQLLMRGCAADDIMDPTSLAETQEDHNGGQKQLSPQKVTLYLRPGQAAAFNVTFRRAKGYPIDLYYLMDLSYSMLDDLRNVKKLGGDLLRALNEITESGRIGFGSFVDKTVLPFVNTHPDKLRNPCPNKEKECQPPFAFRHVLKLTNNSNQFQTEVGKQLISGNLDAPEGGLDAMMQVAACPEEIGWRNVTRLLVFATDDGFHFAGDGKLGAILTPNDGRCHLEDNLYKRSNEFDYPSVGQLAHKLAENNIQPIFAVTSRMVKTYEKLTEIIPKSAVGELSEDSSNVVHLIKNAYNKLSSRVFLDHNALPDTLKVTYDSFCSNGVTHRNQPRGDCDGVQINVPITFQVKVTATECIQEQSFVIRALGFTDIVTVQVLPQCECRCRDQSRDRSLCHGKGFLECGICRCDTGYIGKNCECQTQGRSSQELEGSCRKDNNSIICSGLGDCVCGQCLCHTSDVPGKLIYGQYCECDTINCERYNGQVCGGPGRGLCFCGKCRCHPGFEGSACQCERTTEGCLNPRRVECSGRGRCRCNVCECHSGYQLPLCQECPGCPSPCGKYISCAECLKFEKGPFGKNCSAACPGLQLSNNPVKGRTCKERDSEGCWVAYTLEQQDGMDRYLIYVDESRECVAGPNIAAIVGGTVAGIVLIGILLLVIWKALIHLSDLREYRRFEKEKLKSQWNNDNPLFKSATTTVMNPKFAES

| Structure (SMILES) | IC50 |
| --- | --- |
| Clc1ccc(Sc2ccccc2NCCCN2CCOCC2)c(Cl)c1 | 140 nM |
| CC(=O)N1CCN(C(=O)/C=C/c2ccc(Sc3ccc(Cl)cc3Cl)c(/C=C/C(=O)N3CCOCC3)c2)CC1 | 18000 nM |
| O=C(/C=C/c1ccccc1Sc1ccc(Cl)cc1Cl)N1CCOCC1 | 1200 nM |
| CC(=O)N1CCN(C(=O)/C=C/c2ccc(Sc3ccccc3N)c([N+](=O)[O-])c2)CC1 | 620 nM |
| O=C(O)/C=C/c1ccc(Sc2ccc(Cl)cc2Cl)c(Cl)c1 | 2600 nM |
| CC(=O)N1CCN(C(=O)/C=C/c2ccc(Sc3ccccc3Cl)c([N+](=O)[O-])c2)CC1 | 110 nM |
| CN(C)CCC(=O)Nc1ccccc1Sc1ccc(Cl)cc1Cl | 82000 nM |
| O=C(/C=C/c1cccc(Sc2ccc(Cl)cc2Cl)c1)NCCCn1ccnc1 | 7000 nM |
| CC(=O)N1CCN(C(=O)/C=C/c2ccc(Sc3ccc(Cl)cc3Cl)c(Cl)c2)CC1 | 140 nM |
| CN1CCN(CCC(=O)Nc2ccccc2Sc2ccc(Cl)cc2Cl)CC1 | 33000 nM |
| O=C(O)CNC(=O)/C=C/c1ccccc1Sc1ccc(Cl)cc1Cl | 3900 nM |
| O=C(/C=C/c1ccc(Sc2ccc(Cl)cc2Cl)c([N+](=O)[O-])c1)NCCCN1CCCC1=O | 170 nM |
| O=C(/C=C/c1ccc(Sc2ccccc2NCCCN2CCOCC2)c(Cl)c1)N1CCOCC1 | 180 nM |
| NC(=O)c1cc(/C=C/C(=O)N2CCOCC2)ccc1Sc1ccc(Cl)cc1Cl | > 20000 nM |
| CN(C)CCNCc1ccccc1Sc1ccc(Cl)cc1Cl | 5600 nM |
| CC(=O)N1CCN(C(=O)/C=C/c2ccc(Sc3ccccc3C)c([N+](=O)[O-])c2)CC1 | 120 nM |
| CN(CCC(=O)Nc1ccccc1Sc1ccc(Cl)cc1Cl)Cc1ccccc1 | > 100000 nM |
| CCc1ccccc1Sc1ccc(/C=C/C(=O)N2CCN(C(C)=O)CC2)cc1[N+](=O)[O-] | 65 nM |
| CCOC(=O)CN(C)Cc1ccccc1Sc1ccc(/C=C/C(=O)N2CCOCC2)cc1Cl | 260 nM |
| CCCN(CCC)CCC(=O)Nc1ccccc1Sc1ccc(Cl)cc1Cl | 61000 nM |
| O=C(/C=C/c1ccccc1Sc1ccc(Cl)cc1Cl)NCCCCCCO | 100000 nM |

| Structure (SMILES) | IC50 |
| --- | --- |
| CC(=O)N1CCN(C(=O)/C=C/c2ccc(Sc3ccccc3N(C)C)c([N+](=O)[O-])c2)CC1 | 310 nM |
| O=C(/C=C/c1ccc(Sc2ccc(Cl)cc2Cl)c(Cl)c1)N1CCN(c2ccccn2)CC1 | 750 nM |
| O=C(/C=C/c1ccccc1Sc1ccc(Cl)cc1Cl)N(CCO)CCO | 2300 nM |
| O=C(/C=C/c1cccc(Sc2ccc(Cl)cc2Cl)c1)N(CCO)CCO | 15000 nM |
| O=C(/C=C/c1ccccc1Sc1ccc(Cl)cc1Cl)N(Cc1ccccc1)Cc1ccc(Oc2ccccc2)cc1 | > 100000 nM |
| O=C(CCN1CCOCC1)Nc1ccccc1Sc1ccc(Cl)cc1Cl | 12000 nM |
| O=C(/C=C/c1ccccc1Sc1ccc(Cl)cc1Cl)NCCCN1CCCC1=O | 1600 nM |
| O=C(CCN1CCCC1)Nc1ccccc1Sc1ccc(Cl)cc1Cl | > 10000 nM |
| CN1CCN(C(=O)/C=C/c2ccc(Sc3ccc(Cl)cc3Cl)c(Cl)c2)CC1 | 1100 nM |
| O=C(/C=C/c1ccc(Sc2ccc(Cl)cc2Cl)c(Cl)c1)NCCCCCCO | 590 nM |
| O=Cc1cc(/C=C/C(=O)N2CCOCC2)ccc1Sc1ccc(Cl)cc1Cl | 610 nM |
| O=CN1CCN(Cc2ccccc2Sc2ccc(/C=C/C(=O)N3CCOCC3)cc2Cl)CC1 | 420 nM |
| O=C(O)/C=C/c1ccccc1Sc1ccc(Cl)cc1Cl | 2600 nM |
| CC(=O)N1CCN(C(=O)/C=C/c2ccc(Sc3ccccc3C(C)(C)C)c([N+](=O)[O-])c2)CC1 | 530 nM |
| O=C(/C=C/c1ccc(Sc2ccc(Cl)cc2Cl)c(/C=C/C(=O)N2CCOCC2)c1)N1CCOCC1 | > 20000 nM |
| O=C(/C=C/c1ccc(Sc2ccc(Cl)cc2Cl)c(NCCCN2CCOCC2)c1)NCCCN1CCCC1=O | 15500 nM |
| O=C(/C=C/c1ccccc1Sc1ccc(Cl)cc1Cl)NCCO | 3300 nM |
| O=C(/C=C/c1ccc(Sc2ccccc2/C=C/C(=O)N2CCOCC2)c(Cl)c1)N1CCOCC1 | 180 nM |
| O=C(/C=C/c1ccc(Sc2ccccc2CN2CCOCC2)c(Cl)c1)N1CCOCC1 | 150 nM |
| O=C(/C=C/c1ccccc1Sc1ccc(Cl)cc1Cl)NCC1CCCO1 (centres undefined) | 2100 nM |
| CC(=O)N1CCN(C(=O)/C=C/c2ccc(Sc3ccccc3C=O)c([N+](=O)[O-])c2)CC1 | 60 nM |

| Structure (SMILES) | IC50 |
| --- | --- |
| O=C(/C=C/c1ccc(Sc2ccc(Cl)cc2Cl)c(Cl)c1)N(CCO)CCO | 710 nM |
| O=C(O)c1cc(/C=C/C(=O)N2CCOCC2)ccc1Sc1ccc(Cl)cc1Cl | > 20000 nM |
| CC(=O)N1CCN(C(=O)/C=C/c2ccc(Sc3ccc(Cl)cc3Cl)c([N+](=O)[O-])c2)CC1 | 90 nM |
| O=C(/C=C/c1ccc(Sc2ccc(Cl)cc2Cl)c(Cl)c1)NCCO | 920 nM |
| O=C(/C=C/c1ccccc1Sc1ccc(Cl)cc1Cl)NCC(O)CO (centres undefined) | 3800 nM |
| O=C(/C=C/c1ccc(Sc2ccc(Cl)cc2Cl)c(Cl)c1)N1CCOCC1 | 460 nM |
| CC(=O)N1CCN(C(=O)/C=C/c2ccc(Sc3ccccc3C(N)=O)c([N+](=O)[O-])c2)CC1 | 16200 nM |
| O=C(/C=C/c1ccc(Sc2ccc(Cl)cc2Cl)c(Cl)c1)NCCCn1ccnc1 | 1400 nM |
| O=C(/C=C/c1ccc(Sc2ccc(Cl)cc2Cl)c(Cl)c1)NCCCN1CCCC1=O | 550 nM |
| O=C(/C=C/c1ccccc1Sc1ccc(Cl)cc1Cl)NCCCn1ccnc1 | 960 nM |
| O=C(/C=C/c1ccccc1Sc1ccc(Cl)cc1Cl)NCCc1ccccc1 | > 100000 nM |
| CC(=O)N1CCN(C(=O)/C=C/c2ccc(Sc3cccc(Cl)c3Cl)c([N+](=O)[O-])c2)CC1 | 100 nM |
| O=C(/C=C/c1ccc(Sc2ccc(Cl)cc2Cl)c(/C=C/C(=O)N2CCOCC2)c1)NCCCN1CCCC1=O | > 20000 nM |
| O=C(/C=C/c1cccc(Sc2ccc(Cl)cc2Cl)c1)NCCCN1CCCC1=O | 4500 nM |
| O=C(/C=C/c1ccc(Sc2ccccc2CN2CCN(Cc3ccc4c(c3)OCO4)CC2)c(Cl)c1)N1CCOCC1 | 100 nM |
| O=C(/C=C/c1cccc(Sc2ccc(Cl)cc2Cl)c1)N1CCOCC1 | 16500 nM |
| O=C(/C=C/c1ccc(Sc2ccc(Cl)cc2Cl)c(Br)c1)NCCCN1CCCC1=O | 650 nM |
| Nc1cc(/C=C/C(=O)NCCCN2CCCC2=O)ccc1Sc1ccc(Cl)cc1Cl | 19000 nM |
| Cc1cccc2sc(NC(=O)/C=C/c3ccccc3Sc3ccc(Cl)cc3Cl)nc12 | > 100000 nM |
| O=C(/C=C/c1cccc(Sc2ccc(Cl)cc2Cl)c1)NCCCCCCO | 9800 nM |

Each compound was assayed against T1, Intercellular adhesion molecule (ICAM-1), Integrin alpha-L/beta-2 (assay: Inhibition against binding of LFA-1 to ICAM-1).
Type: protein-complex assay

| Structure (SMILES) | IC50 |
| --- | --- |
| CN(C)CCN1c2ccccc2Sc2ccc(Cl)cc21 [CHOLRPHENETHAZINE] | 28 µM |
| Nc1ccc(Sc2ccc(Cl)cc2Cl)c(Cl)c1 | 1.7 µM |
